Experimental data reported in PubChem BioAssay AID1919014 (Molecular Pharmacology Branch, DTP, NCI, 2023).
Several values for one entry are separate records, joined by “and”; a condition that tells them apart may be missing. Identical values can stand only once.

Tested on: NCI-H1341 complex spheroids, percent test/control
Experiment: Anticancer human tumor NCI-H1341 cell line growth inhibition [AhR];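 further: spheroids exposed to agents for seven days before readout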
Conditions: for viability, T/C: stronger effect = lower value; active means viability on the fitted dose curve at most 10% of control; inactive means the rest
Description: Multicellular complex tumor spheroid response to aryl hydrocarbon receptor antagonists in combination with a variety of drugs and investigational agents in selected tumor cell lines
The current study was undertaken to assess response to aryl hydrocarbon receptor antagonists in combination with standard-of-care drugs and investigational agents in solid tumor complex spheroid models. Complex spheroids include a stromal component modeled by human endothelial cells (HUVEC) and fibroblasts modeled by human mesenchymal stem cells (MSCs). The concentration ranges selected for each drug and investigational agent were based upon clinically achievable concentrations if the clinical Cmax of the agent was known.
Compounds. The drugs and investigational agents: BAY 2416964 (NSC825713), GNF351 (NSC835774), CH-223191 (NSC835775), CPI-455 (NSC825282), aza-TdCyd (NSC777586), decitabine (NSC127716), belinostat (NSC758774), entinostat (NSC756642), pevonedistat (NSC761192), tazemetostat (NSC777109), talazoparib (NSC765396), olaparib (NSC753686), selinexor (NSC780203), nedisertib (M3814, NSC802822), bortezomib (NSC756655), venetoclax (NSC766270), doxorubicin (NSC123127), elimusertib (BAY189344, NSC800525), ceralasertib (AZD6738, NSC777638), TAK-243 (NSC785004), alisertib (NSC759677), etoposide (NSC141540), topotecan (NSC609699), eribulin (NSC707389), gemcitabine (NSC613327), carboplatin (NSC241240), cisplatin (NSC119875), and SN-38 (NSC673596) were obtained from the National Cancer Institute (NCI) Developmental Therapeutics Program Chemical Repository (32). The FDA-approved anticancer drug set is available from the Developmental Therapeutics Program at https://dtp.cancer.gov/organization/dscb/obtaining/available plates.htm. […] The stock solutions were prepared in dimethyl sulfoxide (DMSO, Sigma-Aldrich, St. Louis, MO, cat. D2650), except for the platinum compounds which were prepared in saline (Quality Biological, Gaithersburg, MD, cat. 114-055-101), at 800-fold the tested concentration and stored at -70 degrees C prior to their use. All drugs and investigational agents were tested over a range starting from a high concentration at or near the clinical Cmax and decreasing in half-log increments. If the clinical Cmax for an agent had not been determined, the highest concentration tested was 10 microM (Table 1).
Cell Culture. All cells were maintained in an incubator at 37 degrees C and 5% CO2 with 95% humidity. The PDC lines were cultured according to standard operating procedures established by the NCI PDMR (https://pdmr.cancer.gov). Briefly, all PDCs were thawed and cultured in Matrigel-coated flasks prepared with a working solution of 1X Ham's F-12 nutrient mix, without supplementation (Invitrogen, Waltham, MA, cat. 11765054), 100 U/mL penicillin-streptomycin (Invitrogen, cat. 15140122), and 2.5% Matrigel (Corning Inc., Corning, NY, cat. 354248) for the first three passages. All PDCs were cultured in complete DMEM/F-12 media containing advanced DMEM/F-12 (Invitrogen, cat. 12634028), 4.9% defined fetal bovine serum, heat inactivated (HyClone Laboratories Inc., Logan, UT, cat. SH30070.03HI), 389 ng/mL hydrocortisone (Sigma-Aldrich, cat. H4001), 9.7 ng/mL human EGF recombinant protein (Invitrogen, cat. PHG0313), 23.4 microg/mL adenine (Sigma-Aldrich, cat. A2786), 97.3 U/mL penicillin-streptomycin (Invitrogen, cat. 15140122), 1.9 mM L-glutamine (Invitrogen, cat. 25030081), and 9.7 microM Y-27632 dihydrochloride (Tocris Bioscience, Bristol, United Kingdom, cat. 1254). The PDCs were cultured in complete DMEM/F12 media without 10 microM Y-27632 dihydrochloride for at least two passages prior to the screen. The established cell lines NCI-H1341 and […] were cultured in DMEM/F-12, HEPES (Invitrogen, cat. 11330032), 5% defined fetal bovine serum (HyClone Laboratories Inc., cat. SH30070.03), ITS premix universal culture supplement [insulin (5 microg/mL), transferrin (5 microg/mL), and selenious acid (5 ng/mL)] […]

[1] = curve of first compound, second compound 0.1 µM
[2] = curve of first compound, second compound 0.316 µM
[3] = curve of first compound, second compound 1 µM
[4] = curve of first compound, second compound 3.16 µM
[5] = curve of first compound, second compound 10 µM
[6] = second compound 0.1 µM, first compound 0.0316 µM
[7] = second compound 0.1 µM, first compound 0.1 µM
[8] = second compound 0.1 µM, first compound 0.316 µM
[9] = second compound 0.1 µM, first compound 1 µM
[10] = second compound 0.1 µM, first compound 3.16 µM
[11] = second compound 0.1 µM, first compound 10 µM
[12] = second compound 0.316 µM, first compound 0.0316 µM
[13] = second compound 0.316 µM, first compound 0.1 µM
[14] = second compound 0.316 µM, first compound 0.316 µM
[15] = second compound 0.316 µM, first compound 1 µM
[16] = second compound 0.316 µM, first compound 3.16 µM
[17] = second compound 0.316 µM, first compound 10 µM
[18] = second compound 1 µM, first compound 0.0316 µM
[19] = second compound 1 µM, first compound 0.1 µM
[20] = second compound 1 µM, first compound 0.316 µM
[21] = second compound 1 µM, first compound 1 µM
[22] = second compound 1 µM, first compound 3.16 µM
[23] = second compound 1 µM, first compound 10 µM
[24] = second compound 3.16 µM, first compound 0.0316 µM
[25] = second compound 3.16 µM, first compound 0.1 µM
[26] = second compound 3.16 µM, first compound 0.316 µM
[27] = second compound 3.16 µM, first compound 1 µM
[28] = second compound 3.16 µM, first compound 3.16 µM
[29] = second compound 3.16 µM, first compound 10 µM
[30] = second compound 10 µM, first compound 0.0316 µM
[31] = second compound 10 µM, first compound 0.1 µM
[32] = second compound 10 µM, first compound 0.316 µM
[33] = second compound 10 µM, first compound 1 µM
[34] = second compound 10 µM, first compound 3.16 µM
[35] = second compound 10 µM, first compound 10 µM

Nc1ccccc1NC(=O)c1ccc(CNC(=O)OCc2cccnc2)cc1 + Cc1ccccc1N=Nc1ccc(NC(=O)c2ccnn2C)c(C)c1
647 nM: IC50 [4]
596 nM: IC50 [3]
380 nM: IC50 [5]
582 nM: IC50 [1]
active: viability, T/C [11] 0.66% | viability, T/C [16] 9.54% | viability, T/C [17] 1.08% | viability, T/C [22] 7.04% | viability, T/C [23] 0.78% | viability, T/C [29] 0.88% | viability, T/C [35] 3.01%
604 nM: IC50 [2]
inactive: viability, T/C [6] 91.8% | viability, T/C [7] 84.5% | viability, T/C [8] 65.2% | viability, T/C [9] 37.4% | viability, T/C [10] 9.11% | viability, T/C [12] 89.9% | viability, T/C [13] 88.7% | viability, T/C [14] 70.3% | viability, T/C [15] 33.6% | viability, T/C [18] 120% | viability, T/C [19] 98.6% | viability, T/C [20] 76.3% | viability, T/C [21] 30.1% | viability, T/C [24] 85.9% | viability, T/C [25] 86.7% | viability, T/C [26] 62% | viability, T/C [27] 43.1% | viability, T/C [28] 12.5% | viability, T/C [30] 49.7% | viability, T/C [31] 53.3% | viability, T/C [32] 58.7% | viability, T/C [33] 37.8% | viability, T/C [34] 18.8%

Cc1ccccc1N=Nc1ccc(NC(=O)c2ccnn2C)c(C)c1
inactive: viability, T/C (compound 10 µM) 56.2% [middle of 20 runs]

NS(=O)(=O)OCC1CC(n2ccc3c(NC4CCc5ccccc54)ncnc32)CC1O (stereo not drawn) + Cc1ccccc1N=Nc1ccc(NC(=O)c2ccnn2C)c(C)c1
110 nM: IC50 [4]
< 31.6 nM: IC50 [5]
63.3 nM: IC50 [2]
113 nM: IC50 [1]
inactive: viability, T/C [6] 51.6% | viability, T/C [7] 56.5% | viability, T/C [8] 16.4% | viability, T/C [12] 59% | viability, T/C [13] 44.2% | viability, T/C [14] 16.8% | viability, T/C [18] 61.5% | viability, T/C [19] 53.1% | viability, T/C [20] 22.4% | viability, T/C [24] 51.5% | viability, T/C [25] 53.4% | viability, T/C [26] 23.6% | viability, T/C [30] 40.4% | viability, T/C [31] 35.7% | viability, T/C [32] 20.2% | viability, T/C [33] 10.3%
active: viability, T/C [9] 7.98% | viability, T/C [10] 7.35% | viability, T/C [11] 6.54% | viability, T/C [15] 9.99% | viability, T/C [16] 7.77% | viability, T/C [17] 6.89% | viability, T/C [21] 11.4% | viability, T/C [22] 8.79% | viability, T/C [23] 6.95% | viability, T/C [27] 11% | viability, T/C [28] 7.99% | viability, T/C [29] 6.85% | viability, T/C [34] 8.16% | viability, T/C [35] 5.99%
111 nM: IC50 [3]

O=C(C=Cc1cccc(S(=O)(=O)Nc2ccccc2)c1)NO + Cc1ccccc1N=Nc1ccc(NC(=O)c2ccnn2C)c(C)c1
338 nM: IC50 [5]
568 nM: IC50 [1]
419 nM: IC50 [2]
266 nM: IC50 [4]
457 nM: IC50 [3]
active: viability, T/C [10] 5.9% | viability, T/C [11] 0.79% | viability, T/C [16] 5.71% | viability, T/C [17] 0.82% | viability, T/C [22] 6.42% | viability, T/C [23] 0.59% | viability, T/C [28] 8.47% | viability, T/C [29] 0.58% | viability, T/C [34] 10.8% | viability, T/C [35] 1.49%
inactive: viability, T/C [6] 95.4% | viability, T/C [7] 95.6% | viability, T/C [8] 75.8% | viability, T/C [9] 24.8% | viability, T/C [12] 94.8% | viability, T/C [13] 91.9% | viability, T/C [14] 54.7% | viability, T/C [15] 26.2% | viability, T/C [18] 84.3% | viability, T/C [19] 94.1% | viability, T/C [20] 60.3% | viability, T/C [21] 23% | viability, T/C [24] 77.1% | viability, T/C [25] 62.2% | viability, T/C [26] 49.9% | viability, T/C [27] 25.4% | viability, T/C [30] 59.1% | viability, T/C [31] 55% | viability, T/C [32] 53.5% | viability, T/C [33] 29%

CC(C)CC(NC(=O)C(Cc1ccccc1)NC(=O)c1cnccn1)B(O)O (stereo not drawn)
5 nM and 4.6 nM: IC50 (curve of compound)
inactive: viability, T/C (compound 0.000949 µM) 97% and 95% and 100% | viability, T/C (compound 0.003 µM) 87.7% and 87% and 79%
active: viability, T/C (compound 0.00949 µM) 2.76% and 3.47% and 0.86% | viability, T/C (compound 0.03 µM) 0.19% and 0.35% and 0.14% | viability, T/C (compound 0.0949 µM) 0.14% and 0.25% and 0.11% | viability, T/C (compound 0.3 µM) 0.17% and 0.31% and 0.15%

CC1COCCN1c1cc(-c2ccnn2C)c2ccnc(-c3ccn[nH]3)c2n1 (stereo not drawn) + CC(CO)NC(=O)c1cc(-c2ccc(Cl)cc2)nn(-c2cnn(C)c2)c1=O
24.8 nM: IC50 [3]
inactive: viability, T/C (second compound 0.1 µM, first compound 0.00316 µM) 87.6% | viability, T/C (second compound 0.1 µM, first compound 0.01 µM) 77.6% | viability, T/C [6] 61.2% | viability, T/C [7] 28.6% | viability, T/C [8] 20.5% | viability, T/C [9] 20.2% | viability, T/C (second compound 0.316 µM, first compound 0.00316 µM) 96.4% | viability, T/C (second compound 0.316 µM, first compound 0.01 µM) 73.6% | viability, T/C [12] 54.5% | viability, T/C [13] 29.7% | viability, T/C [14] 23.8% | viability, T/C [15] 18.2% | viability, T/C (second compound 1 µM, first compound 0.00316 µM) 90.2% | viability, T/C (second compound 1 µM, first compound 0.01 µM) 72.3% | viability, T/C [18] 44.6% | viability, T/C [19] 25.3% | viability, T/C [20] 22.7% | viability, T/C [21] 19.2% | viability, T/C (second compound 3.16 µM, first compound 0.00316 µM) 84.3% | viability, T/C (second compound 3.16 µM, first compound 0.01 µM) 77.3% | viability, T/C [24] 43.1% | viability, T/C [25] 24.6% | viability, T/C [26] 23.7% | viability, T/C [27] 17.8% | viability, T/C (second compound 10 µM, first compound 0.00316 µM) 71.2% | viability, T/C (second compound 10 µM, first compound 0.01 µM) 64% | viability, T/C [30] 33% | viability, T/C [31] 21.6% | viability, T/C [32] 22.2% | viability, T/C [33] 17.8%
25.3 nM: IC50 [4]
45.8 nM: IC50 [1]
34.3 nM: IC50 [2]
16.8 nM: IC50 [5]
